Legend:
Type in all cases: in vivo
[1] = tested on: Tygress tomato plants; assay: Foliar nutrient concentration 2 weeks after treatment, greenhouse tomato (Examples 4-6); conditions: for B concentration in tomato leaves / Ca concentration in tomato leaves / Cu concentration in tomato leaves / Fe concentration in tomato leaves / K concentration in tomato leaves / Mg concentration in tomato leaves / Mn concentration in tomato leaves / N concentration in tomato leaves / P concentration in tomato leaves: 2 weeks after treatment
Outline: (§1)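 Tygress tomato in 2-gallon pots of micronutrient-poor medium (negligible Fe, Zn, Mn, Cu) in greenhouse; foliar treatments at 5 WAT in 200 mL/plant water with non-ionic surfactant. Newest non-applied leaves analysed 2 weeks before and after treatment; marketable fruit harvested three times from 10 WAT, graded. RCBD, 6 replications, LSD 5%.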

[2] = tested on: Tygress tomato plants; assay: Yields of tomato fruits, greenhouse (Examples 4-6); conditions: for Marketable yield: tomato fruits
Outline: as §1

[3] = tested on: Tygress tomato plants; assay: Plant injury observed after BIOX-A foliar application, greenhouse tomato (Example 6); conditions: BIOX-A at concentrations of 2.86 or higher
Description: The following experiments were performed in a green house during the fall of 2008 and spring of 2009 at GCREC, Balm, University of Florida. Crop set-up, procedures and variables were as follows. […] Irrigation and non-micronutrient fertilizer were provided daily through microsprinklers at recommended rates for tomato production in Florida. No pesticides were used. Treatments were as described in Tables 4, 5 and 6 below. […] Treatments were applied at 5 WAT (weeks after transplanting) using a water volume of 200 mL/plant. A non-ionic surfactant was added. […] There were no significant differences between the foliar nutrient concentration of the leaves of any of the treatment groups prior to treatment.

CSCCC(O)C(=O)O (stereo not shown) [BIOX-A, 2-hydroxy-4(methylthio)butanoic acid]
B concentration in tomato leaves ([1]; BIOX-A 0.69 lb/acre): 27 ppm | Ca concentration in tomato leaves ([1]; BIOX-A 0.69 lb/acre): 0.5% | Cu concentration in tomato leaves ([1]; BIOX-A 0.69 lb/acre): 29 ppm | Fe concentration in tomato leaves ([1]; BIOX-A 0.69 lb/acre): 85 ppm | K concentration in tomato leaves ([1]; BIOX-A 0.69 lb/acre): 3.2% | Mg concentration in tomato leaves ([1]; BIOX-A 0.69 lb/acre): 0.3% | Mn concentration in tomato leaves ([1]; BIOX-A 0.69 lb/acre): 56 ppm | N concentration in tomato leaves ([1]; BIOX-A 0.69 lb/acre): 3.4% | P concentration in tomato leaves ([1]; BIOX-A 0.69 lb/acre): 0.6% | B concentration in tomato leaves ([1]; BIOX-A 1.37 lb/acre): 28 ppm | Ca concentration in tomato leaves ([1]; BIOX-A 1.37 lb/acre): 0.6% | Cu concentration in tomato leaves ([1]; BIOX-A 1.37 lb/acre): 31 ppm | Fe concentration in tomato leaves ([1]; BIOX-A 1.37 lb/acre): 88 ppm | K concentration in tomato leaves ([1]; BIOX-A 1.37 lb/acre): 3.4% | Mg concentration in tomato leaves ([1]; BIOX-A 1.37 lb/acre): 0.3% | Mn concentration in tomato leaves ([1]; BIOX-A 1.37 lb/acre): 55 ppm | N concentration in tomato leaves ([1]; BIOX-A 1.37 lb/acre): 3.7% | P concentration in tomato leaves ([1]; BIOX-A 1.37 lb/acre): 0.4% | B concentration in tomato leaves ([1]; BIOX-A 2.86 lb/acre): 28 ppm | Ca concentration in tomato leaves ([1]; BIOX-A 2.86 lb/acre): 0.6% | Cu concentration in tomato leaves ([1]; BIOX-A 2.86 lb/acre): 50 ppm | Fe concentration in tomato leaves ([1]; BIOX-A 2.86 lb/acre): 87 ppm | K concentration in tomato leaves ([1]; BIOX-A 2.86 lb/acre): 3.3% | Mg concentration in tomato leaves ([1]; BIOX-A 2.86 lb/acre): 0.1% | Mn concentration in tomato leaves ([1]; BIOX-A 2.86 lb/acre): 54 ppm | N concentration in tomato leaves ([1]; BIOX-A 2.86 lb/acre): 3.1% | P concentration in tomato leaves ([1]; BIOX-A 2.86 lb/acre): 0.4% | B concentration in tomato leaves ([1]; BIOX-A 5.52 lb/acre): 24 ppm | Ca concentration in tomato leaves ([1]; BIOX-A 5.52 lb/acre): 0.6% | Cu concentration in tomato leaves ([1]; BIOX-A 5.52 lb/acre): 28 ppm | Fe concentration in tomato leaves ([1]; BIOX-A 5.52 lb/acre): 90 ppm | K concentration in tomato leaves ([1]; BIOX-A 5.52 lb/acre): 2.1% | Mg concentration in tomato leaves ([1]; BIOX-A 5.52 lb/acre): 0.1% | Mn concentration in tomato leaves ([1]; BIOX-A 5.52 lb/acre): 53 ppm | N concentration in tomato leaves ([1]; BIOX-A 5.52 lb/acre): 2.7% | P concentration in tomato leaves ([1]; BIOX-A 5.52 lb/acre): 0.5% | B concentration in tomato leaves ([1]; BIOX-A 8.28 lb/acre): 25 ppm | Ca concentration in tomato leaves ([1]; BIOX-A 8.28 lb/acre): 0.5% | Cu concentration in tomato leaves ([1]; BIOX-A 8.28 lb/acre): 25 ppm | Fe concentration in tomato leaves ([1]; BIOX-A 8.28 lb/acre): 9 ppm | K concentration in tomato leaves ([1]; BIOX-A 8.28 lb/acre): 0.9% | Mg concentration in tomato leaves ([1]; BIOX-A 8.28 lb/acre): 0.1% | Mn concentration in tomato leaves ([1]; BIOX-A 8.28 lb/acre): 57 ppm | N concentration in tomato leaves ([1]; BIOX-A 8.28 lb/acre): 1.7% | P concentration in tomato leaves ([1]; BIOX-A 8.28 lb/acre): 0.6% | Effect on foliar concentration of N, P, K, Mg, Ca, B, Mn, Fe and Zn relative to the control ([1]; BIOX-A, all applied concentrations, P>0.05): None of the applied concentrations of BIOX-A had a significant effect | Marketable and unmarketable yields (in words) ([2]; 1.37 lb/acre or less of BIOX-A): statistically similar | Marketable yield ([2]; BIOX-A 0.69 lb/acre): 2.3 lb/plant | Marketable yield ([2]; BIOX-A 1.37 lb/acre): 2.4 lb/plant | Marketable yield ([2]; BIOX-A 2.86 lb/acre): 1.1 lb/plant | Marketable yield ([2]; BIOX-A 5.52 lb/acre): 0 lb/plant | Marketable yield ([2]; BIOX-A 8.28 lb/acre): 0 lb/plant | Non-marketable tomato yields compared with control (in words) ([2]; BIOX-A at concentrations of 2.86 or higher): significantly higher non-marketable tomato yields than control | Marketable tomato yields (in words) ([2]; BIOX-A at concentrations of 2.86 or higher, P<0.05): significantly decreased | Plant injury (in words) [3]: severely injured tomato plants

Reference: patent publication US20110098177A1, “METHODS AND COMPOSITIONS OF PLANT MICRONUTRIENTS” (NOVUS INTERNATIONAL INC., priority 2006, published 2011)
